Assay type in all cases: biochemical
One assay addresses Human PDE4A3 (Homo sapiens (Human), UniProt P27815). The assay is described as follows: PDE4A3 Scintillation Proximity Assay (SPA), inhibition of enzyme activity. The settings on record: read-out: Human PDE4A FL. The procedure:
(§1) The PDE4A, PDE4B, PDE4C and PDE4D binding affinity for the compounds of the present invention was determined utilizing the following biological assay(s):
(§2) The recombinant Bacmid was isolated and used to transfect insect cells to generate a viral stock. To generate cell paste for purification, insect cells were infected with the virus stock and cells were harvested 72 hours after infection. Insect cell paste was lysed and after centrifugation, the supernatant was batch bound to Ni-NTA agarose (GE Healthcare) and eluted with 250 mM imidazole. This eluate was diluted with FLAG buffer (50 mM Tris HCL pH 7.5, 100 mM NaCl, 5% Glycerol, 1 mM TCEP with protease inhibitors) and batch bound to ant-FLAG M2 agarose (Sigma) overnight at 4° C. The agarose was packed into a column, washed with buffer and eluted with buffer containing elute using 250 ug/ml Flag-peptide. Fractions were analyzed using SDS-PAGE Coomassie blue staining and pooled based on purity. Pooled fractions were chromatographed on a S200 120 ml column (GE Healthcare) in 50 mM Tris HCL pH 7.5, 150 mM NaCl, 10% Glycerol, 2 mM TCEP with protease inhibitors. PDE4A3 fractions were analyzed by SDS-PAGE Coomassie blue staining, pooled based on purity, dialyzed against 50 mM Tris HCL pH 7.5, 100 mM NaCl, 20% Glycerol, 2 mM TCEP, frozen and stored at −80° C.
(§3) The PDE4A3, PDE4B1, PDE4C1 and PDE4D3 assays use the Scintillation Proximity Assay (SPA) technology to measure the inhibition of human recombinant PDE4A1, PDE4B3, PDE4C1, and PDE4D3 enzyme activity by compounds in vitro. The PDE4A1, PDE4B3, PDE4C1, and PDE4D3 assays are run in parallel using identical parameters, except for the concentration of enzyme ([…]). The assays are performed in a 384-well format with 50 uL assay buffer (50 mM TRIS pH7.5; 1.3 mM MgCl2; 0.01% Brij) containing enough PDE4A3, PDE4B1, PDE4C1, and PDE4D to convert ˜20% of substrate (1 μM cAMP consisting of 20 nM 3H-cAMP+[…] cold cAMP) and a range of inhibitors. Reactions are incubated for 30 min at 25° C. The addition of 20 uL of 8 mg/ml yitrium silicate SPA beads (Perkin Elmer) stops the reaction. The plates are sealed (TopSeal, Perkin Elmer) and the beads are allowed to settle for 8 hrs, after which they are read on the Trilux Microbeta overnight.
Background: In a scintillation proximity assay essentially only radioactivity close to the scintillant gives light.

Another assay addresses Human PDE4C1 (Homo sapiens (Human), UniProt Q08493). The assay can be described thus: PDE4C1 Scintillation Proximity Assay (SPA), inhibition of enzyme activity. Particulars: read-out: Human PDE4C FL. On the procedure:
as §1
as §2, with “PDE4C1” for “PDE4A3”
as §3

The target of a further assay is human PDE4D3 (Homo sapiens (Human), UniProt Q08499). The assay can be described thus: PDE4D3 Scintillation Proximity Assay (SPA), inhibition of enzyme activity. Particulars: read-out: Human PDE4D FL. The procedure: as §1
human PDE4D3, sequence (Q08499 186-808): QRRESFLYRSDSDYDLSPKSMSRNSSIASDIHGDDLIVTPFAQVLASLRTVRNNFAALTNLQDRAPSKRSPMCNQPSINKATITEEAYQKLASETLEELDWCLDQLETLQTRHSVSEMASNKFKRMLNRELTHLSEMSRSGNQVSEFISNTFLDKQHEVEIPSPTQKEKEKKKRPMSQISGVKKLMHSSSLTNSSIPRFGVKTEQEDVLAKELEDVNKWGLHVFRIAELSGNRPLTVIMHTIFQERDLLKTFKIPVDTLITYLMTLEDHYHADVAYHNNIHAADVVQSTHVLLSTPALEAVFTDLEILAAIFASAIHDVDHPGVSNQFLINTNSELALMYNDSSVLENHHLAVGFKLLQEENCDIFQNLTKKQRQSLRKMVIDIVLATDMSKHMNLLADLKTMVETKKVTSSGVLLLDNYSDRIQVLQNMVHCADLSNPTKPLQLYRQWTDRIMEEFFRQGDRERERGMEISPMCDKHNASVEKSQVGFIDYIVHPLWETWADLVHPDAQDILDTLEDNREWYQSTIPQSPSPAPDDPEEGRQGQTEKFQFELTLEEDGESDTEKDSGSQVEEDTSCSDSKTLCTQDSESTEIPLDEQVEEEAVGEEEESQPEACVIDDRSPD
A portion of the human PDE4D3 coding sequence (amino acids 50 to 672 from the sequence with accession number Q08499-2) was cloned into the baculovirus expression vector pFastBac (Invitrogen) engineered to include a C-terminal His6 affinity tag to aid in purification as described in Seeger, T. F. et al., Brain Research 985 (2003) 113-126. The recombinant Bacmid was isolated and used to transfect insect cells to generate a viral stock. To generate cell paste for purification, insect cells were infected and cells were harvested 72 hours after infection. Insect cell paste was lysed and after centrifugation, the supernatant was chromatographed on Ni-NTA agarose (Qiagen) as described in Seeger, T. F. et al., Brain Research 985 (2003) 113-126. Ni-NTA agarose eluting fractions containing PDE4 were pooled, diluted with Q Buffer A (50 mM Tris HCl pH 8, 4% glycerol, 100 mM NaCl, 1 mM TCEP, Protease inhibitors EDTA-free (Roche)) to reduce NaCl to ˜200 mM, and loaded on a Q Sepharose (GE Healthcare) column. After washing with Q buffer A to baseline, PDE4D was eluted with a gradient from 10% to 60% of Buffer B (50 mM Tris HCl pH 8, 1 M NaCl, 4% glycerol, 1 mM TCEP). PDE4D fractions were analyzed by SDS-PAGE Coomassie blue staining, pooled based on purity, frozen and stored at −80° C.
as §3

A further assay deals with Human PDE4B1 (Homo sapiens (Human), UniProt Q07343, S133E/S654A/S659A/S661A). The assay is described as follows: PDE4B1 Scintillation Proximity Assay (SPA), inhibition of enzyme activity. The settings on record: read-out: Human PDE4B FL. On the procedure:
as §1
The recombinant Bacmid was isolated and used to transfect insect cells to generate a viral stock. To generate cell paste for purification, insect cells were infected with the virus stock and cells were harvested 72 hours after infection as described in Seeger, T. F. et al., Brain Research 985 (2003) 113-126. Insect cell paste was lysed and after centrifugation, the supernatant was chromatographed on Ni-NTA agarose (Qiagen) as described in Seeger, T. F. et al., Brain Research 985 (2003) 113-126. Ni-NTA agarose eluting fractions containing PDE4 were pooled, diluted with Q buffer A (20 mM Tris HCl pH 8, 5% glycerol, 1 mM TCEP) to reduce NaCl to ˜100 mM and loaded on a Source 15Q (GE Healthcare) column. After washing with Q buffer A/10% buffer B to baseline, PDE4D was eluted with a gradient from 10% to 60% of Buffer B (20 mM Tris HCl pH 8, 1 M NaCl, 5% glycerol, 1 mM TCEP). PDE4D fractions were analyzed by SDS-PAGE Coomassie blue staining, pooled based on purity, frozen and stored at −80° C.
as §3

The mark [1] stands for this setting: Table 9, geometric mean of 2-9 determinations unless otherwise indicated.
Setting [2] is: Table 10, geometric mean of 2-9 determinations unless otherwise indicated.

Read-outs that look alike come from different tables or passages of the source.

Human PDE4B1, sequence (Q07343 122-736 S133E/S654A/S659A/S661A): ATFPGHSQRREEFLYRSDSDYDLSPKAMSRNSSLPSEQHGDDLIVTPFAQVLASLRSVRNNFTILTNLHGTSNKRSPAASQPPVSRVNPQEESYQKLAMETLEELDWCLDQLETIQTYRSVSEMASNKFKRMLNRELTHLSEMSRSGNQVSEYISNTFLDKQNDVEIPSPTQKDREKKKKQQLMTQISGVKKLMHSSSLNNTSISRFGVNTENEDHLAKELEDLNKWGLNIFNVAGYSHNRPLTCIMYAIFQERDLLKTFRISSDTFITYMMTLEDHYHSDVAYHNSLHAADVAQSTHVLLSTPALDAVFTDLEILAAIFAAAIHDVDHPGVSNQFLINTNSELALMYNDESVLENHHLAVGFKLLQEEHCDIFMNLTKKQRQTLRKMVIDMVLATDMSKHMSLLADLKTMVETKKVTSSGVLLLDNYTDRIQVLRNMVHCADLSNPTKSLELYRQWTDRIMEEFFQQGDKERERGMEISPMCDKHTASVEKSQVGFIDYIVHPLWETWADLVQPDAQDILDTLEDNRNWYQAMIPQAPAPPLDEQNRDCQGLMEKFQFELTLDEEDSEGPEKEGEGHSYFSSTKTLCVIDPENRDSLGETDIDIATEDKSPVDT
Human PDE4A3, sequence (P27815 other isoform, or with tags, fused parts or gaps): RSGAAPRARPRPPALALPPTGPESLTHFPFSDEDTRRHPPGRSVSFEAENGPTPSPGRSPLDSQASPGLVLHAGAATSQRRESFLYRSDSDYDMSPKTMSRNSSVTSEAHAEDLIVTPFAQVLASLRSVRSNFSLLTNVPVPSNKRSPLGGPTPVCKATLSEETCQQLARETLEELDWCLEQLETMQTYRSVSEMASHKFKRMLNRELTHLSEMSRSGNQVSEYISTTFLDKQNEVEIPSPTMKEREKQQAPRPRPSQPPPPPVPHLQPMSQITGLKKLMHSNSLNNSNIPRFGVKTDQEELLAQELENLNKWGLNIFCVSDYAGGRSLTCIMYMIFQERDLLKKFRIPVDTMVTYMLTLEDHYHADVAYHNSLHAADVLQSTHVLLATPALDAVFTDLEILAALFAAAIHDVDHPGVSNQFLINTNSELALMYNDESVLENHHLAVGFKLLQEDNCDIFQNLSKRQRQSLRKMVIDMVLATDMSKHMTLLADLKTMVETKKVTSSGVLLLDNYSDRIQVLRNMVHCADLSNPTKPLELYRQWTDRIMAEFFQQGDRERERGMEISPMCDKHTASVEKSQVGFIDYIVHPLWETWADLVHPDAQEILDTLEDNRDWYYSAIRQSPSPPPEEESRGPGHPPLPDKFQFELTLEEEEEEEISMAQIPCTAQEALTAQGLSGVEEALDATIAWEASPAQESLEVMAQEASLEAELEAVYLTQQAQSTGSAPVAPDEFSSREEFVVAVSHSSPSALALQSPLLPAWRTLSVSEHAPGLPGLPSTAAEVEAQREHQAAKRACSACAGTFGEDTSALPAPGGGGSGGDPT
Human PDE4C1, sequence (Q08493 2-712): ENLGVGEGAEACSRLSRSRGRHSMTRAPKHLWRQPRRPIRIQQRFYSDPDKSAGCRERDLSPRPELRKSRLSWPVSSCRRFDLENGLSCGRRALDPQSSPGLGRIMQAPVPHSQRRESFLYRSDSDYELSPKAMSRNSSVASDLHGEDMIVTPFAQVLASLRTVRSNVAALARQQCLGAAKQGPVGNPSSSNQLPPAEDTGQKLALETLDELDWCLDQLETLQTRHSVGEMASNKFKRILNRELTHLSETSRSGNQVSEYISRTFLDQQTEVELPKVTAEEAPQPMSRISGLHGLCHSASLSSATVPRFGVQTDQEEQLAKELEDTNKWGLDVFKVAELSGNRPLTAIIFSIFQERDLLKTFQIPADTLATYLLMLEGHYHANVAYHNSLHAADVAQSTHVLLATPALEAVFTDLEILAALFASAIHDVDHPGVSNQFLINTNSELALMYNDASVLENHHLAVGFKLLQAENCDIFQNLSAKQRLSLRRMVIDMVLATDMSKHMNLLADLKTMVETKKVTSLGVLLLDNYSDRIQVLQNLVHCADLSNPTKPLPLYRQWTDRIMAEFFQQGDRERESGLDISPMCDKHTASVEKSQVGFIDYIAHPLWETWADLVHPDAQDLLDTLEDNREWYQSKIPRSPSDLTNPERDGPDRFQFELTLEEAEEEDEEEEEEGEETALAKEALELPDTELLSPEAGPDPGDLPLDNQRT

For `O=C1c2c(-c3ccc(Cl)c(F)c3)c3ncccc3n2CCN1c1ncccn1` [Example 74, 10-(4-Chloro-3-fluorophenyl)-8-(pyrimidin-2-yl)-7,8-dihydropyrido[2′,3′:4,5]pyrrolo[1,2-a]pyrazin-9(6H)-one], the IC50 on Human PDE4A3 (setting [1]) stood at 19 nM; at Human PDE4C1 (setting [1]), 52 nM; on human PDE4D3 (setting [1]), 660 nM; at Human PDE4B1 (setting [1]) it was 27 nM.
Turning to `Cn1cc(-c2c3n(c4cccnc24)CCN(C2CC2)C3=O)cn1` [Example 91, 8-Cyclopropyl-10-(1-methyl-1H-pyrazol-4-yl)-7,8-dihydropyrido[2′,3′:4,5]pyrrolo[1,2-a]pyrazin-9(6H)-one], the IC50 was determined as 889 nM at Human PDE4A3 (setting [2]), 2360 nM at Human PDE4C1 (setting [2]), 4450 nM at human PDE4D3 (setting [2]) and 2760 nM at Human PDE4B1 (setting [2]).
Taken in the same sequence, the figures for `Cc1cccnc1-c1c2n(c3cccnc13)CCN(C1CC1)C2=O` [Example 84, 8-Cyclopropyl-10-(3-methylpyridin-2-yl)-7,8-dihydropyrido[2′,3′:4,5]pyrrolo[1,2-a]pyrazin-9(6H)-one] were 15500 nM, more than 30000 nM, more than 30000 nM and more than 25800 nM.
Turning to `O=C1c2c(-c3ccc(Cl)cc3)c3ncsc3n2CCN1C1CC1` [Example 27, 9-(4-Chlorophenyl)-7-cyclopropyl-6,7-dihydro[1,3]thiazolo[4′,5′:4,5]pyrrolo[1,2-a]pyrazin-8(5H)-one], the IC50 worked out at 2.28 nM at Human PDE4A3 (setting [1]), 9.03 nM at Human PDE4C1 (setting [1]), 434 nM at human PDE4D3 (setting [1]) and 3.04 nM on Human PDE4B1 (setting [1]).
`N#Cc1cc(-c2c3n(c4cccnc24)CCN(C2CC2)C3=O)ccc1Cl` [Example 34, 2-Chloro-5-(8-cyclopropyl-9-oxo-6,7,8,9-tetrahydropyrido[2′,3′:4,5]pyrrolo[1,2-a]pyrazin-10-yl)benzonitrile]: the IC50 at Human PDE4A3 (setting [1]) is 0.98 nM; on Human PDE4C1 (setting [1]) it was 2.88 nM; at human PDE4D3 (setting [1]), 23.3 nM; on Human PDE4B1 (setting [1]), less than 0.64 nM.
With `Cc1ccc(-c2c3n(c4cccnc24)CCN(C2CC2)C3=O)cc1` [Example 20, 8-Cyclopropyl-10-(4-methylphenyl)-7,8-dihydropyrido[2′,3′:4,5]pyrrolo[1,2-a]pyrazin-9(6H)-one], the IC50 on Human PDE4A3 (setting [1]) turned out to be 2.52 nM; at Human PDE4C1 (setting [1]), 11.5 nM; on human PDE4D3 (setting [1]) it was 465 nM; on Human PDE4B1 (setting [1]), 4.88 nM.
On to `O=C1c2c(-c3ccc(Cl)c(F)c3)c3nccnc3n2CCN1C1CC1` [Example 8, 10-(4-Chloro-3-fluorophenyl)-8-cyclopropyl-7,8-dihydropyrrolo[1,2-a:4,5-b′]dipyrazin-9(6H)-one], for which the IC50 on Human PDE4A3 (setting [1]) is 1.19 nM; at Human PDE4C1 (setting [1]), 13.9 nM; at human PDE4D3 (setting [1]), 88.5 nM; on Human PDE4B1 (setting [1]), less than 1.27 nM.
With `O=C1c2c(-c3ccc(Cl)cc3)c3ncccc3n2CC2CCN12` (single isomer, unassigned) [Example 69], the IC50 on Human PDE4A3 (setting [1]) amounted to 8.87 nM; on Human PDE4C1 (setting [1]), 24.3 nM; at human PDE4D3 (setting [1]), 689 nM; on Human PDE4B1 (setting [1]), 16.3 nM.
Turning to `COc1ccc(-c2c3n(c4cccnc24)CCN(C2CC2)C3=O)c(F)c1` [Example 54, 8-Cyclopropyl-10-(2-fluoro-4-methoxyphenyl)-7,8-dihydropyrido[2′,3′:4,5]pyrrolo[1,2-a]pyrazin-9(6H)-one], the IC50 at Human PDE4A3 (setting [1]) is 21.2 nM; at Human PDE4C1 (setting [1]), 35.8 nM; on human PDE4D3 (setting [1]), 3770 nM; on Human PDE4B1 (setting [1]), 54.6 nM.
Turning to `O=C1c2c(-c3ccc(Cl)cc3)c3cccnc3n2CCN1C1CC1` [Example 9, 5-(4-Chlorophenyl)-7-cyclopropyl-8,9-dihydropyrido[3′,2′: 4,5]pyrrolo[1,2-a]pyrazin-6(7H)-one], the IC50 on Human PDE4A3 (setting [1]) stood at 129 nM; on Human PDE4C1 (setting [1]), 127 nM; at human PDE4D3 (setting [1]), 8190 nM; on Human PDE4B1 (setting [1]), 298 nM.
`C[C@@H]1Cn2c(c(-c3ccc(Cl)cc3)c3ncccc32)C(=O)N1C1CC1` [Example 10, (7R)-10-(4-Chlorophenyl)-8-cyclopropyl-7-methyl-7,8-dihydropyrido[2′,3′:4,5]pyrrolo[1,2-a]pyrazin-9(6H)-one]: the IC50 stood at 15.5 nM on Human PDE4A3 (setting [1]), 28.2 nM at Human PDE4C1 (setting [1]), 768 nM on human PDE4D3 (setting [1]) and 12.2 nM at Human PDE4B1 (setting [1]).
With `O=C1c2c(-c3ccccc3)c3ncccc3n2CCN1C1CC1` [Example 42, 8-Cyclopropyl-10-phenyl-7,8-dihydropyrido[2′,3′:4,5]pyrrolo[1,2-a]pyrazin-9(6H)-one], the IC50 at Human PDE4A3 (setting [1]) turned out to be 12.2 nM; on Human PDE4C1 (setting [1]), 54.1 nM; at human PDE4D3 (setting [1]), 1050 nM; on Human PDE4B1 (setting [1]), 23.3 nM.
As to `Cn1nc(-c2c3n(c4cccnc24)CCN(C2CC2)C3=O)nc1C(F)F` [Example 90, 8-Cyclopropyl-10-(5-(difluoromethyl)-1-methyl-1H-1,2,4-triazol-3-yl)-7,8-dihydropyrido[2′,3′:4,5]pyrrolo[1,2-a]pyrazin-9(6H)-one], the IC50 on Human PDE4A3 (setting [2]), at human PDE4D3 (setting [2]) and at Human PDE4B1 (setting [2]) was more than 30000 nM in each case.

Values taken from US11472805B2, “Tricyclic compounds and their use as phosphodiesterase inhibitors” (Pfizer Inc., priority 2015, dated 2022).
